In patent publication US7605156B2, “Methods for the use of inhibitors of cytosolic phospholipase A2” (Wyeth, priority 2001, dated 2009):

Biological target: T1, cPLA2 (Homo sapiens, UniProt P47712)
T1 sequence (P47712 1-749): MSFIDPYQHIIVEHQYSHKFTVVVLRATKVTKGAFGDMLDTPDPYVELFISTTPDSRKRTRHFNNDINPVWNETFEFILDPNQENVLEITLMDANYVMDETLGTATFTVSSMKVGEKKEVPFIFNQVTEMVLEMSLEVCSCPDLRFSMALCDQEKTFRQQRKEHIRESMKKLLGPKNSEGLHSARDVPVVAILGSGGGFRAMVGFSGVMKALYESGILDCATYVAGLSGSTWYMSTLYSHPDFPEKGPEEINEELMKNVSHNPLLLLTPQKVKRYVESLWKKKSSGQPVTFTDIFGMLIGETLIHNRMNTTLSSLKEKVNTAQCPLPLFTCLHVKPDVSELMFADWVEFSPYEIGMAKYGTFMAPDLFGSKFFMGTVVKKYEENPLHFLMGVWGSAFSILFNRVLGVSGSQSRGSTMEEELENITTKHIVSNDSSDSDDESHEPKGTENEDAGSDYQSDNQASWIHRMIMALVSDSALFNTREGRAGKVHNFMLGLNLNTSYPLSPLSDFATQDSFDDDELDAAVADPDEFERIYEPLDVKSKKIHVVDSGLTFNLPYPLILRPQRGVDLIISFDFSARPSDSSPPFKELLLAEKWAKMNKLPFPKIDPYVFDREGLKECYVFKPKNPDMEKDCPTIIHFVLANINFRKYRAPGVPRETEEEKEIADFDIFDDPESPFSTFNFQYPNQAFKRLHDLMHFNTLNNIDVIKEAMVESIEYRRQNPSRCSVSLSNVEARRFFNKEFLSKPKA
Assay: Coumarine assay (hydrolysis of 7-hydroxycoumarinyl 6-heptenoate)
Format: biochemical
Conditions: 60 μM 7-hydroxycoumarinyl 6-heptenoate, pH 7.5; read-out: Coumarin IC50
Description: Inhibitors were mixed with 200 μL assay buffer (80 mM Heped, pH 7.5, 1 mM EDTA) containing 60 μM 7-hydroxycoumarinyl 6-heptenoate. The reaction was initiated by adding 4 μg cPLA2 in 50 μL assay buffer. Hydrolysis of the 7-hydroxycounarimyl 6-heptenoate ester was monitored in a fluorometer by exciting at 360 nm and monitoring emission at 460 nm. Enzyme activity is proportional to the increase in emission at 460 nm per minute. In the presence of a cPLA2 inhibitor, the rate of increase is less.

SMILES	IC50 [nM]
O=C(O)c1ccc(CCCc2c(CCNS(=O)(=O)c3cc(F)c(Cl)cc3F)n(C(c3ccccc3)c3ccccc3)c3ccc(Cl)cc23)cc1 [Example 168, 4-{3-[1-benzhydryl-5-chloro-2-(2-{[(4-chloro-2,5-difluorophenyl)sulfonyl]amino}ethyl)-1H-indol-3-yl]propyl}benzoic acid]	270
O=C(O)c1ccc(OCCc2c(CCNS(=O)(=O)c3cc(Cl)c(F)cc3F)n(C(c3ccccc3)c3ccccc3)c3ccc(Cl)cc23)cc1 [Example 169, 4-{2-[1-Benzhydryl-5-chloro-2-(2-{[(5-chloro-2,4-difluorophenyl)sulfonyl]amino}ethyl)-1H-indol-3-yl]ethoxy}benzoic acid]	460
O=C(O)c1ccc(OCCc2c(CCNS(=O)(=O)c3cc(F)c(Cl)cc3F)n(C(c3ccccc3)c3ccccc3)c3ccc(Cl)cc23)cc1 [Example 170, 4-{2-[1-benzhydryl-5-chloro-2-(2-{[(4-chloro-2,5-difluorophenyl)sulfonyl]amino}ethyl)-1H-indol-3-yl]ethoxy}benzoic acid]	950
COc1cc(C)ccc1S(=O)(=O)NCCc1c(CCOc2ccc(C(=O)O)cc2)c2cc(Cl)ccc2n1C(c1ccccc1)c1ccccc1 [Example 171, 4-{2-[1-benzhydryl-5-chloro-2-(2-{[(2-methoxy-4-methylphenyl)sulfonyl]amino}ethyl)-1H-indol-3-yl]ethoxy}benzoic acid]	360
O=C(O)c1ccc(CCCc2c(CCNS(=O)(=O)c3ccc(Cl)c4nonc34)n(C(c3ccccc3)c3ccccc3)c3ccc(Cl)cc23)cc1 [Example 172, 4-{3-[1-benzhydryl-5-chloro-2-(2-{[(7-chloro-2,1,3-benzoxadiazol-4-yl)sulfonyl]amino}ethyl)-1H-indol-3-yl]propyl}benzoic acid]	350
COc1ccc(S(=O)(=O)NCCc2c(CCCc3ccc(C(=O)O)cc3)c3cc(Cl)ccc3n2C(c2ccccc2)c2ccccc2)c2nonc12 [Example 173, 4-{3-[1-benzhydryl-5-chloro-2-(2-{[(7-methoxy-2,1,3-benzoxadiazol-4-yl)sulfonyl]amino}ethyl)-1H-indol-3-yl]propyl}benzoic acid]	400
O=C(O)c1ccc(OCCc2c(CCNS(=O)(=O)c3ccc(Cl)c4nonc34)n(C(c3ccccc3)c3ccccc3)c3ccc(Cl)cc23)cc1 [Example 174, 4-{2-[1-benzhydryl-5-chloro-2-(2-{[(7-chloro-2,1,3-benzoxadiazol-4-yl)sulfonyl]amino}ethyl)-1H-indol-3-yl]ethoxy}benzoic acid]	1100
COc1ccc(S(=O)(=O)NCCc2c(CCOc3ccc(C(=O)O)cc3)c3cc(Cl)ccc3n2C(c2ccccc2)c2ccccc2)c2nonc12 [Example 175, 4-{2-[1-benzhydryl-5-chloro-2-(2-{[(7-methoxy-2,1,3-benzoxadiazol-4-yl)sulfonyl]amino}ethyl)-1H-indol-3-yl]ethoxy}benzoic acid]	370
Cc1nc(-c2ccc(S(=O)(=O)NCCc3c(CCCc4ccc(C(=O)O)cc4)c4cc(Cl)ccc4n3C(c3ccccc3)c3ccccc3)s2)cs1 [Example 176, 4-(3-{1-benzhydryl-5-chloro-2-[2-({[5-(2-methyl-1,3-thiazol-4-yl)thien-2-yl]sulfonyl}amino)ethyl]-1H-indol-3-yl}propyl)benzoic acid]	400
Cc1nc(-c2ccc(S(=O)(=O)NCCc3c(CCOc4ccc(C(=O)O)cc4)c4cc(Cl)ccc4n3C(c3ccccc3)c3ccccc3)s2)cs1 [Example 177, 4-(2-{1-benzhydryl-5-chloro-2-[2-({[5-(2-methyl-1,3-thiazol-4-yl)thien-2-yl]sulfonyl}amino)ethyl]-1H-indol-3-yl}ethoxy)benzoic acid]	900
O=C(O)c1ccc(OCCc2c(CCNS(=O)(=O)c3ccsc3)n(C(c3ccccc3)c3ccccc3)c3ccc(Cl)cc23)cc1 [Example 178, 4-[2-(1-benzhydryl-5-chloro-2-{2-[(thien-3-ylsulfonyl)amino]ethyl}-1H-indol-3-yl)ethoxy]benzoic acid]	650
O=C(O)c1ccc(OCCc2c(CCNS(=O)(=O)c3ccc(N4CCOCC4)nc3)n(C(c3ccccc3)c3ccccc3)c3ccc(Cl)cc23)cc1 [Example 179, 4-{2-[1-benzhydryl-5-chloro-2-(2-{[(6-morpholin-4-ylpyridin-3-yl)sulfonyl]amino}ethyl)-1H-indol-3-yl]ethoxy}benzoic acid]	900
O=C(O)c1ccc(CCCc2c(CCNS(=O)(=O)c3ccsc3)n(C(c3ccccc3)c3ccccc3)c3ccc(Cl)cc23)cc1 [Example 180, 4-[3-(1-benzhydryl-5-chloro-2-{2-[(thien-3-ylsulfonyl)amino]ethyl}-1H-indol-3-yl)propyl]benzoic acid]	230
O=C(O)c1ccc(CCCc2c(CCNS(=O)(=O)c3ccc(N4CCOCC4)nc3)n(C(c3ccccc3)c3ccccc3)c3ccc(Cl)cc23)cc1 [Example 181, 4-{3-[1-benzhydryl-5-chloro-2-(2-{[(6-morpholin-4-ylpyridin-3-yl)sulfonyl]amino}ethyl)-1H-indol-3-yl]propyl}benzoic acid]	320
O=C(O)c1ccc(OCCc2c(CCNS(=O)(=O)c3cccc4nonc34)n(C(c3ccccc3)c3ccccc3)c3ccc(Cl)cc23)cc1 [Example 182, 4-(2-{1-Benzhydryl-2-[2-(benzo[1,2,5]oxadiazole-4-sulfonylamino)-ethyl]-5-chloro-1H-indol-3-yl}-ethoxy)benzoic acid]	600
O=C(O)c1ccc(OCCc2c(CCNS(=O)(=O)c3ccccc3OCc3ccccc3)n(C(c3ccccc3)c3ccccc3)c3ccc(Cl)cc23)cc1 [Example 184, 4-(2-{1-Benzhydryl-2-[2-(2-benzyloxy-benzenesulfonylamino)-ethyl]-5-chloro-1H-indol-3-yl}-ethoxy)benzoic acid]	350
CC(C)Oc1ccccc1S(=O)(=O)NCCc1c(CCOc2ccc(C(=O)O)cc2)c2cc(Cl)ccc2n1C(c1ccccc1)c1ccccc1 [Example 185, 4-(2-{1-Benzhydryl-5-chloro-2-[2-(2-isopropoxy-benzenesulfonylamino)-ethyl]-1H-indol-3-yl}-ethoxy)benzoic acid]	170
CC(C)Oc1ccccc1S(=O)(=O)NCCc1c(CCCc2ccc(C(=O)O)cc2)c2cc(Cl)ccc2n1C(c1ccccc1)c1ccccc1 [Example 186, 4-(3-{1-Benzhydryl-5-chloro-2-[2-(2-isopropoxy-benzenesulfonylamino)-ethyl]-1H-indol-3-yl}-propyl)benzoic acid]	100
O=C(O)c1ccc(CCCc2c(CCNS(=O)(=O)c3ccccc3OCc3ccccc3)n(C(c3ccccc3)c3ccccc3)c3ccc(Cl)cc23)cc1 [Example 187, 4-(3-{1-Benzhydryl-2-[2-(2-benzyloxy-benzenesulfonylamino)-ethyl]-5-chloro-1H-indol-3-yl}-propyl)benzoic acid]	200
O=C(O)c1ccc(OCCc2c(CCNS(=O)(=O)c3ccccc3Cl)n(C(c3ccccc3)c3ccccc3)c3ccc(Cl)cc23)cc1F [Example 190, 4-(2-{1-Benzhydryl-5-chloro-2-[2-(2-chloro-benzenesulfonylamino)-ethyl]-1H-indol-3-yl}-ethoxy)-2-fluoro-benzoic acid]	530
